The text below walks through data of patent publication US20160355530A1, “HEPATITIS C INHIBITORS AND USES THEREOF” (AbbVie Inc., priority 2010, published 2016).

Where two headings read alike, the source gives them in different places.

Test [1] concerns the target T1, HCV NS5B polymerase 1a-H77 (Hepatitis C virus genotype 1a, UniProt P27958).
T1 construct: six-histidine tag; made in house; host or cells: E. coli
As to the kind of experiment: biochemical. The arrangement: species or system HCV genotype 1a. Particulars: enzyme, strain 1a H77; read-out: HCV Polymerase Strain 1a H77 IC50. The procedure:
(§1) Purified HCV NS5B polymerase enzymes were used for polymerase inhibition assays. All recombinant HCV polymerases contained the first 570 amino acids of the 591 amino acid native protein sequence and a six-histidine tag at the N-terminus or C-terminus to facilitate purification by affinity chromatography. The DNA nucleotide sequence for the HCV polymerase 1b BK strain was codon optimized for expression in E. coli. A synthetic gene was prepared from a series of overlapping oligonucleotides that were filled in using a DNA polymerase and amplified by PCR. The patient isolate HCV polymerases were cloned by RT-PCR methods using HCV RNA extracted from the serum of infected subjects obtained from ProMedDx and BioCollections (genotypes 2a, 2b, 3a, and 4a). Laboratory strains were cloned from plasmid DNA (1a-H77 or 1a-H77-C316Y) or from existing replicon cells (1b Rice). In all cases the amplified DNA was cloned into a protein expression vector (typically a pET vector from Novagen) and then multiple clones were sequenced to identify one whose NS5B sequence agreed with the population sequence. This sequence-confirmed clone was then transfected into E. coli for protein expression and purification. E. coli cultures were grown to a maximum optical density (OD) of 2-3 and then induced with 0.4 mM isopropyl beta-D-thiogalactopyranoside (IPTG) and grown for 20 hours at 20° C.
(§2) Proteins were purified using nickel affinity chromatography, and additional column steps were added including, ion exchange, size exclusion, hydrophobic ion, and poly-U affinity chromatography, as needed, depending on the sample being purified. The template RNA used in the polymerase enzymatic assay was a 2.1 kb construct that corresponds to the 3′-end of an HCV genotype 1b negative strand RNA.
(§3) The reaction was initiated by the addition of 20 μM CTP, 20 μM ATP, 0.284 μM (0.5 μCi) of 5,6-[^3H] UTP, 5 nM template RNA and 0.1 U/μL RNase inhibitor (RNasin, Promega), and allowed to proceed for three hours at 30° C. The final reaction volume was 50 μL. The reaction was terminated by the addition of 50 uL of 4 mM spermine in 10 mM Tris-HCl, pH 7.5, 1 mM EDTA. The quenched reaction was allowed to incubate for at least 15 minutes at room temperature, and then the precipitated RNA was captured by filtration through a glass fiber filter (GF/B, Millipore) in a 96 well format. The filter plate was washed five times with 200 μL of 2 mM spermine, 10 mM Tris-HCl, pH 8.0, 1 mM EDTA, and two times with ethanol. After drying thoroughly in air, 30 μL of Microscint-20 scintillation cocktail (Perkin Elmer) was added to each well, and the retained cpm were determined by scintillation counting. IC50 values were determined by nonlinear regression.
(§4) % Inhibition=100*[[I]/([I]+[IC50])] equation 1
(§5) V=kcat[S]/2(Km+[S])*(sqrt((IC50+I−E)̂2+(4*IC50*E))−(IC50+I−E)) equation 2

In test [2] the target is T2, HCV NS5B polymerase 1b BK strain (Hepatitis C virus genotype 1b, UniProt P26663).
T2 construct: six-histidine tag; made in house; host or cells: E. coli
As to the kind of experiment: HCV NS5B polymerase enzymatic inhibition assay, strain 1b BK. Type of test: biochemical. As to conditions: enzyme, strain 1b BK; read-out: HCV Polymerase Strain 1b BK IC50. As to the method: as §1, §2, §3, §4, §5

Test [3] has as its system HCV 1a-H77 subgenomic replicon. As to the kind of experiment: microbe, parasite or virus in culture. Type of test: cell-based, HCV genotype 1a. As to conditions: Hepatitis C virus, stable replicon.
Test [4] has as its system HCV 1b-BB7 subgenomic replicon. In words: microbe, parasite or virus in culture. Type of test: cell-based, HCV genotype 1b. As to conditions: Hepatitis C virus, stable replicon.
[5] abbreviates: 5% FBS, absence of human plasma, read-out: Stable Replicon 1a H77 5% FBS EC50.
Setting [6] is: strain 1a H77, 5% FBS + 40% human plasma, read-out: 1a H77 5% FBS + 40% Human Plasma EC50.
The mark [7] stands for this setting: strain 1a H77, 5% FBS, no human plasma, read-out: 1a H77 5% FBS EC50.
Where [8] appears, read: strain 1a H77, 5% FBS, read-out: 1a H77 5% FBS EC50.
Where [9] appears, read: strain 1b BB7, 5% FBS + 40% human plasma, read-out: 1b BB7 5% FBS + 40% Human Plasma EC50.
The mark [10] stands for this setting: strain 1b BB7, 5% FBS, no human plasma, read-out: 1b BB7 5% FBS EC50.
[11] abbreviates: strain 1b BB7, 5% FBS, read-out: 1b BB7 5% FBS EC50.

T1 sequence (P27958 2421-2990): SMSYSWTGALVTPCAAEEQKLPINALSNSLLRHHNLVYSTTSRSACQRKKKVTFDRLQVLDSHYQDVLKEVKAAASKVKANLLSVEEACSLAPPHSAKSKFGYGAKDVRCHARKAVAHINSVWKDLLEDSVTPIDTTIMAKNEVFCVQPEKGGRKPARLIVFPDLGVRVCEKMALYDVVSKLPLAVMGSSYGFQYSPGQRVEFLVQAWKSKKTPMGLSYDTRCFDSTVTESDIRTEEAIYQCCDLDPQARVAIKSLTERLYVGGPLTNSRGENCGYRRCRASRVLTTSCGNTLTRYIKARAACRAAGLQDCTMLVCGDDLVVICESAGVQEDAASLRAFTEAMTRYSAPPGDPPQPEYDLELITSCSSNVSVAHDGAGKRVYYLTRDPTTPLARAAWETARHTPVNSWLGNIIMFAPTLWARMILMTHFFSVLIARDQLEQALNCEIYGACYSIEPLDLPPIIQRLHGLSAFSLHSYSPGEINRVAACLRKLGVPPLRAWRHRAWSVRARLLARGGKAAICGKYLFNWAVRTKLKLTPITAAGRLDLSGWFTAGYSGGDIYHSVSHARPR
T2 sequence (P26663 2420-2989): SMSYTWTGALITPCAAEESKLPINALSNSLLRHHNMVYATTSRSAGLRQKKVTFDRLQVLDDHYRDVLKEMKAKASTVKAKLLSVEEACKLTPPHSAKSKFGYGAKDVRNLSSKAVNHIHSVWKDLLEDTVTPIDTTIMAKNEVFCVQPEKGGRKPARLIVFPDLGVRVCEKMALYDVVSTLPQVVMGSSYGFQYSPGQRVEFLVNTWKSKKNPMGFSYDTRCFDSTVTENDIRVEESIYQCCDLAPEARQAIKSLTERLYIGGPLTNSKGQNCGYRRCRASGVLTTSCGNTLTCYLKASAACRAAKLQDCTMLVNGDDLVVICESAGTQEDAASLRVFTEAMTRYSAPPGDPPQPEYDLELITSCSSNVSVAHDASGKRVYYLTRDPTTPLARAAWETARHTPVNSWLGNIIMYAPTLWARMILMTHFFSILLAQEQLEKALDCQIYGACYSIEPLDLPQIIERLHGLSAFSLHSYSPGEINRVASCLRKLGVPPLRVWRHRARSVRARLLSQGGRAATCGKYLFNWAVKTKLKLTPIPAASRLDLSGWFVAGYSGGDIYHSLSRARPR

Take `CS(=O)(=O)Nc1cc2oc(-c3ccc(F)cc3)c(-c3nc(Cl)c[nH]3)c2cc1C1CC1` [Example 164, N-[3-(4-chloro-1H-imidazol-2-yl)-5-cyclopropyl-2-(4-fluorophenyl)-1-benzofuran-6-yl]methanesulfonamide]: the values for the IC50 in test [1] and in test [2] were 0.136 µM and 0.906 µM, respectively. The EC50 in test [3] (setting [5]) is 1 µM; in test [3] (setting [6]) it was 10 µM; in test [3] (setting [7]), 1 µM; in test [3] (setting [8]), 1 µM; in test [4] (setting [9]), 10 µM; in test [4] (setting [10]), 1 µM. For the same compound, the half-maximal effective concentration (EC50) in test [4] (setting [11]) turned out to be 1 µM.
On to `CC(C)(C)[Si](C)(C)OCCCCN(c1cc2oc(-c3ccc(F)cc3)c(-c3ncc[nH]3)c2cc1C1CC1)S(C)(=O)=O` [Example 42, N-(4-{[tert-butyl(dimethyl)silyl]oxy}butyl)-N-[5-cyclopropyl-2-(4-fluorophenyl)-3-(1H-imidazol-2-yl)-1-benzofuran-6-yl]methanesulfonamide], for which the IC50 stood at 0.083 µM in test [1] and 0.781 µM in test [2]. The EC50 in test [3] (setting [5]) was determined as 0.214 µM; in test [3] (setting [6]), 7.41 µM; in test [3] (setting [7]), 0.214 µM; in test [3] (setting [8]), 0.214 µM; in test [4] (setting [9]), 3.39 µM; in test [4] (setting [10]), 0.119 µM. For the same compound, the EC50 in test [4] (setting [11]) was 0.119 µM.
As for `CS(=O)(=O)Nc1cc2oc(-c3ccc(F)cc3)c(-c3nc(Cl)c(Cl)[nH]3)c2cc1C1CC1` [Example 163, N-[5-cyclopropyl-3-(4,5-dichloro-1H-imidazol-2-yl)-2-(4-fluorophenyl)-1-benzofuran-6-yl]methanesulfonamide], the figures for the 50% inhibitory concentration (IC50) in test [1] and in test [2] were 0.212 µM and 0.555 µM, respectively. For the same compound, the EC50 in test [3] (setting [5]) was found to be 7.83 µM; in test [3] (setting [6]) it was 10 µM; in test [3] (setting [7]), 7.83 µM; in test [3] (setting [8]), 7.83 µM; in test [4] (setting [9]), 10 µM; in test [4] (setting [10]) it was 5.4 µM. The EC50 in test [4] (setting [11]) worked out at 5.4 µM.
For `COc1ccc(CN(c2cc3oc(-c4ccc(F)cc4)c(-c4nc(C)c(C)[nH]4)c3cc2C2CC2)S(C)(=O)=O)cc1` [Example 186, N-[5-cyclopropyl-3-(4,5-dimethyl-1H-imidazol-2-yl)-2-(4-fluorophenyl)-1-benzofuran-6-yl]-N-(4-methoxybenzyl)methanesulfonamide], the 50% inhibitory concentration (IC50) in test [1] and in test [2] was 4.5 µM each time.
As to `Cc1ccc(C)n1-c1ccc2c(-c3ncc[nH]3)c(-c3ccccc3)oc2c1` [Example 166, 2-[6-(2,5-dimethyl-1H-pyrrol-1-yl)-2-phenyl-1-benzofuran-3-yl]-1H-imidazole], the 50% inhibitory concentration (IC50) was determined as 1.6 µM in test [1] and 7 µM in test [2].
`CS(=O)(=O)N(CN1C(=O)c2ccccc2C1=O)c1cc2oc(-c3ccc(F)cc3)c(-c3ncc[nH]3)c2cc1C1CC1` [Example 82, N-[5-cyclopropyl-2-(4-fluorophenyl)-3-(1H-imidazol-2-yl)-1-benzofuran-6-yl]-N-[(1,3-dioxo-1,3-dihydro-2H-isoindol-2-yl)methyl]methanesulfonamide]: the IC50 in test [1] came to 0.35 µM; in test [2], 3 µM. Besides, the concentration for a half-maximal effect (EC50) in test [3] (setting [5]) worked out at 2.63 µM; in test [3] (setting [7]) it was 2.63 µM; in test [3] (setting [8]) it was 2.63 µM; in test [4] (setting [10]), 1.58 µM; in test [4] (setting [11]) it was 1.58 µM.
Take `COc1ccc(CN(c2cc3oc(-c4ccc(F)cc4)c(C4=NOCC(=O)N4)c3cc2C2CC2)S(C)(=O)=O)cc1` [Example 160, N-[5-cyclopropyl-2-(4-fluorophenyl)-3-(5-oxo-5,6-dihydro-4H-1,2,4-oxadiazin-3-yl)-1-benzofuran-6-yl]-N-(4-methoxybenzyl)methanesulfonamide]: the half-maximal inhibitory concentration (IC50) in test [1] was 0.11 µM; in test [2], 0.93 µM. In addition, the EC50 came out at 2.16 µM in test [3] (setting [5]); 10 µM in test [3] (setting [6]); 2.16 µM in test [3] (setting [7]); 2.16 µM in test [3] (setting [8]); 9.28 µM in test [4] (setting [9]); 0.604 µM in test [4] (setting [10]). In test [4] (setting [11]), the concentration for a half-maximal effect (EC50) was determined as 0.604 µM.
Take `CCCC1NC(c2c(-c3ccc(F)cc3)oc3cc(N(CCC(C)C)S(C)(=O)=O)c(C4CC4)cc23)=NO1` (stereo not drawn) [Example 154, N-[5-cyclopropyl-2-(4-fluorophenyl)-3-(5-propyl-4,5-dihydro-1,2,4-oxadiazol-3-yl)-1-benzofuran-6-yl]-N-(3-methylbutyl)methanesulfonamide]: the half-maximal inhibitory concentration (IC50) in test [1] was found to be 21.3 µM; in test [2], 63.3 µM.
Turning to `Cc1nc(-c2c(-c3ccc(F)cc3)oc3cc(NS(C)(=O)=O)c(C4CC4)cc23)[nH]c1C` [Example 192, N-[5-cyclopropyl-3-(4,5-dimethyl-1H-imidazol-2-yl)-2-(4-fluorophenyl)-1-benzofuran-6-yl]methanesulfonamide], the values for the concentration for half-maximal inhibition (IC50) in test [1] and in test [2] were 10.3 µM and 18 µM, respectively.
As for `CCCc1nc(-c2c(-c3ccc(F)cc3)oc3cc(N(CCC(C)C)S(C)(=O)=O)c(C4CC4)cc23)no1` [Example 153, N-[5-cyclopropyl-2-(4-fluorophenyl)-3-(5-propyl-1,2,4-oxadiazol-3-yl)-1-benzofuran-6-yl]-N-(3-methylbutyl)methanesulfonamide], the values for the half-maximal inhibitory concentration (IC50) in test [1] and in test [2] were 179 µM and 200 µM, respectively.
`CC(C)CCN(c1cc2oc(-c3ccc(F)cc3)c(C3=NOC(C)(C)N3)c2cc1C1CC1)S(C)(=O)=O` [Example 152, N-[5-cyclopropyl-3-(5,5-dimethyl-4,5-dihydro-1,2,4-oxadiazol-3-yl)-2-(4-fluorophenyl)-1-benzofuran-6-yl]-N-(3-methylbutyl)methanesulfonamide]: the IC50 in test [1] turned out to be 0.118 µM; in test [2] it was 3.6 µM. Besides, the half-maximal effective concentration (EC50) in test [3] (setting [5]), in test [3] (setting [7]), in test [3] (setting [8]), in test [4] (setting [10]) and in test [4] (setting [11]) was 10 µM in each case.
In the case of `CC(C)CCN(c1cc2oc(-c3ccc(F)cc3)c(-c3nc(C(F)(F)F)c[nH]3)c2cc1C1CC1)S(C)(=O)=O` [Example 171, N-{5-cyclopropyl-2-(4-fluorophenyl)-3-[4-(trifluoromethyl)-1H-imidazol-2-yl]-1-benzofuran-6-yl}-N-(3-methylbutyl)methanesulfonamide], the IC50 in test [1] came out at 2.86 µM; in test [2], 88.7 µM. Moreover, the EC50 came to 7.62 µM in test [3] (setting [5]); 7.62 µM in test [3] (setting [7]); 7.62 µM in test [3] (setting [8]); 9.27 µM in test [4] (setting [10]); 9.27 µM in test [4] (setting [11]).
For `CS(=O)(=O)Nc1cc2oc(-c3ccc(F)cc3)c(-c3nc(Br)c(Br)[nH]3)c2cc1C1CC1` [Example 165, N-[5-cyclopropyl-3-(4,5-dibromo-1H-imidazol-2-yl)-2-(4-fluorophenyl)-1-benzofuran-6-yl]methanesulfonamide], the IC50 in test [1] was 1.5 µM; in test [2], 2.7 µM.
